Test results published in patent US8765433B2, “Alcohol dehydrogenases (ADH) useful for fermentive production of lower alkyl alcohols” (priority 2009, dated 2014).

Legend:
Test in all cases: isobutyraldehyde reduction kinetics (A340, initial rates)
Assay type in all cases: biochemical
[1] = test system: Acinetobacter baumannii AYE ADH (AbADH), SEQ ID NO: 36
Source text: (§1) This example describes preparation of ADH-gene constructs for over-expression/purification and measurement of enzyme activities using a time-course assay. Horse-liver ADH (HLADH; A-6128) was purchased from Sigma. Achromobacter xylosoxidans SadB (SadB), Saccharomyces cerevisiae ADH6 (ScADH6) and ADH7 (ScADH7), Entamoeba histolytica ADH1 (EhADH1), Bos Taurus Aldehyde Reductase (BtARD), Beijerinckia indica subsp. Indica ATCC 9039 (BiADH), Clostridium beijerinckii ADH (CbADH), Rana perezi ADH8 (RpADH8), Rattus norvegicus ADH1 (RnADH1), Thermus sp. ATN1 ADH (TADH), Phenylobacterium zucineum HLK1 ADH (PzADH), Methylocella silvestris BL2 ADH (MsADH), Acinetobacter baumannii AYE ADH (AbADH), Geobacillus sp. WCH70 ADH (GbADH), Vanderwaltozyma polyspora DSM 70294 ADH (VpADH), Mucor circinelloides ADH (McADH), and Rhodococcus erythropolis PR4ADH (ReADH) were the candidates for which subclones were prepared for protein expression and purification.
(§2) As a routine practice, the crude extracts and purified proteins were assayed for butanol oxidation activity, in order to ensure that the recombinant proteins were active throughout the purification process. […] Alcohol oxidation activities were carried out in 50 mM sodium phosphate buffer at pH 8.8 and aldehyde reduction reactions were assayed in 190 mM potassium phosphate buffer at pH 7.0. Depending on the nature of reaction being carried out, the enzyme and cofactor stocks were diluted in the reaction buffers at the respective pHs. Either buffer or cell extract prepared from the proprietary E. coli strain (with no ADH plasmid) was used as the negative control for assays with purified protein and cell-free extracts, respectively.
(§3) Kinetic constants of the ADH enzymes were calculated and compared to identify those candidate ADH enzymes with the most desirable properties for the conversion of isobutyraldehyde to isobutanol in the last step of the engineered pathway for isobutanol production. The assays for determining the kinetic constants were carried out using initial rates from the assays described above. […] The concentration of a given enzyme was such that it was conducive for the measurement of initial velocities over a 1-min time course. For each enzyme, Michaelis-Menten plots were generated with a broad range of substrate concentrations. Rough estimates of KM were obtained, based on which the assays were redesigned so as to use substrate concentrations in the range 0.5 to 10 times the KM value, to be able to obtain the appropriate kinetic constants. […] When calculating the KI for isobutanol, the same reactions were carried out in the presence of varying concentrations of isobutanol (generally 0-535 mM) in the reaction (see FIG. 7, for example). Reactions with isobutanol substrate were performed at 30° C. in 50 mM Sodium phosphate buffer, pH 8.8, containing 7.5 mM NAD. The Enzyme kinetics module (Version 1.3) of SigmaPlot 11 (Systat Software, Inc.) was used to fit data to Michaelis-Menten equations and calculate the kinetic constants. The kcat/KM is derived from the individual numbers of kcat and KM and not an experimentally determined value. The ratios of the KM, KI, and kcat/KM for each candidate enzyme as compared to the same parameter for SadB are given in Table 9.
(§4) Seven additional candidate ADH enzymes were synthesized, expressed, and assayed according to methods such as described in Example 2. Kinetic constants obtained for the indicated ADH enzymes (Phenylobacterium zucineum HLK1 ADH (PzADH), Methylocella silvestris BL2 ADH (MsADH), Acinetobacter baumannii AYE ADH (AbADH), Geobacillus sp. WCH70 ADH (GbADH), and Mucor circinelloides ADH (McADH)) are given in Table 8. A comparison of KM, KI, and kcat/KM for each candidate enzyme as compared to the same parameter for SadB are given in Table 9 as a percentage of the values determined (Table 7) for SadB. […]

[2] = molecular target: T1, Geobacillus sp. WCH70 ADH (GbADH), SEQ ID NO: 37 (Parageobacillus toebii, UniProt A0A6G9J337)
T1 construct: 346 aa, begins […]) in pBADHisA, N-terminal His tag, expressed in E. coli, purified
T1 sequence (A0A6G9J337 entry or part of it): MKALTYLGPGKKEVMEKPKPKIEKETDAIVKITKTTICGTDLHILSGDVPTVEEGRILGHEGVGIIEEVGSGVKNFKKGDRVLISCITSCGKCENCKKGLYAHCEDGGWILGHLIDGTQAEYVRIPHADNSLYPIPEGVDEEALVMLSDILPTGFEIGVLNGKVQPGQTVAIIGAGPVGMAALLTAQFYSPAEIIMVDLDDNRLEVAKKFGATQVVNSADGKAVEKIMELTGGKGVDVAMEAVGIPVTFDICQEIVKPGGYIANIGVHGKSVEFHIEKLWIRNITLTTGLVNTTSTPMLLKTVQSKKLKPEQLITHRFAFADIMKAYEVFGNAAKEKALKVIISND
Source text: as §1, §2, §3, §4

[3] = molecular target: T2, Methylocella silvestris BL2 ADH (MsADH), SEQ ID NO: 35 (Methylocella silvestris, UniProt B8ELZ1)
T2 sequence (B8ELZ1 1-345): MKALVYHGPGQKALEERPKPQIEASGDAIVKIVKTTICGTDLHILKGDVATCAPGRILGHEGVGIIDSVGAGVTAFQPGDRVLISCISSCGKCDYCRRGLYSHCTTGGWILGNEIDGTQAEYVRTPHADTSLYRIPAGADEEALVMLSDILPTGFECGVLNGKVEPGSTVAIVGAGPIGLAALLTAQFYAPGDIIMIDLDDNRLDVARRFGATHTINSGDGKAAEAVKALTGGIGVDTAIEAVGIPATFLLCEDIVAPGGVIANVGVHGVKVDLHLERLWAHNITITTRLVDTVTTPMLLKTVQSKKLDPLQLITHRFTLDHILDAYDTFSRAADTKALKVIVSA
Source text: as §1, §2, §3, §4

[4] = molecular target: Mucor circinelloides ADH (McADH), SEQ ID NO: 39 (Mucor circinelloides, UniProt Q66UT6)
Mucor circinelloides ADH (McADH), SEQ ID NO: 39, sequence (Q66UT6 entry or part of it): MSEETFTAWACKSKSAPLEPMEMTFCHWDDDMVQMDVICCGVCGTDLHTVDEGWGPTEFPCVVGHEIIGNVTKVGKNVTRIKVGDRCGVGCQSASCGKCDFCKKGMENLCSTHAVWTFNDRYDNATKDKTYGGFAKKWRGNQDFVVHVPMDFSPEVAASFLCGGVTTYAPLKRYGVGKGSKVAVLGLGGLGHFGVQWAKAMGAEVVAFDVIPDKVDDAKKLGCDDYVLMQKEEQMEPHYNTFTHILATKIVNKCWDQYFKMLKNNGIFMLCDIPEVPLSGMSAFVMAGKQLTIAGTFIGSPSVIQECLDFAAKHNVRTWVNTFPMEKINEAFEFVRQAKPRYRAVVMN
Source text: as §1, §2, §3, §4

[5] = molecular target: T3, Phenylobacterium zucineum HLK1 ADH (PzADH), SEQ ID NO: 34 (Phenylobacterium zucineum, UniProt B4RIA4)
T3 sequence (B4RIA4 1-345): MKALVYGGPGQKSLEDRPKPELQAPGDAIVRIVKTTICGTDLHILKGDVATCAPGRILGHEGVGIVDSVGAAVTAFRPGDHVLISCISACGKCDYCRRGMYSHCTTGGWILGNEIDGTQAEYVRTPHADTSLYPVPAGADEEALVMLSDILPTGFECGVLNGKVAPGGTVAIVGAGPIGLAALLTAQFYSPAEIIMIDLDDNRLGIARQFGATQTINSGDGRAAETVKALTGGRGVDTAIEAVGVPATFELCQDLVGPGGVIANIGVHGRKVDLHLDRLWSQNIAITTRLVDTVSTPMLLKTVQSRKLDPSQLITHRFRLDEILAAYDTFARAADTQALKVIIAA
Source text: as §1, §2, §3, §4

Compound: CC(C)C=O [isobutyraldehyde]
- Km ([1]; 30° C., pH 7.0, NADH specific, read-out: KM (Isobutanal)): 10 mM
- kcat ([1]; isobutyraldehyde reduction, 30° C., pH 7.0, NADH specific): 99 s⁻¹
- KM as a percentage of the same parameter for SadB ([1]; relative to SadB): 1020%
- kcat as a percentage of the same parameter for SadB ([1]; relative to SadB): 91%
- kcat/KM as a percentage of the same parameter for SadB ([1]; relative to SadB): 9%
- KM as a percentage of the same parameter for SadB ([2]; relative to SadB): 44%
- kcat as a percentage of the same parameter for SadB ([2]; relative to SadB): 29%
- kcat/KM as a percentage of the same parameter for SadB ([2]; relative to SadB): 69%
- KM as a percentage of the same parameter for SadB ([3]; relative to SadB): 6%
- kcat as a percentage of the same parameter for SadB ([3]; relative to SadB): 30%
- kcat/KM as a percentage of the same parameter for SadB ([3]; relative to SadB): 532%
- KM as a percentage of the same parameter for SadB ([4]; relative to SadB): 3000%
- kcat as a percentage of the same parameter for SadB ([4]; relative to SadB): 138%
- kcat/KM as a percentage of the same parameter for SadB ([4]; relative to SadB): 5%
- KM as a percentage of the same parameter for SadB ([5]; relative to SadB): 10%
- kcat as a percentage of the same parameter for SadB ([5]; relative to SadB): 28%
- kcat/KM as a percentage of the same parameter for SadB ([5]; relative to SadB): 243%

Compound: CC(C)CO [isobutanol, 2-methylpropan-1-ol]
- KI as a percentage of the same parameter for SadB ([1]; relative to SadB): 169%
- Ki ([2]; isobutyraldehyde reduction, varying isobutanol, NADPH specific): 13 mM
- KI as a percentage of the same parameter for SadB ([2]; relative to SadB): 7%
- Ki ([3]; read-out: KI (Isobutanol)): 19 mM
- KI as a percentage of the same parameter for SadB ([3]; relative to SadB): 11%
- Ki ([4]; read-out: KI (Isobutanol)): 79 mM
- KI as a percentage of the same parameter for SadB ([4]; relative to SadB): 44%
- Ki ([5]; read-out: KI (Isobutanol)): 13 mM
- KI as a percentage of the same parameter for SadB ([5]; relative to SadB): 7%
